24 compounds from PubChem BioAssay (NCI) can be followed below.

Molecules are shown by their SMILES.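 Each compound was tested at five concentrations against cells in 96-well plates for 48 hours. Abbreviation: GI50, concentration required for 50% inhibition of growth. At the TGI there is no net growth.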

For the first assay, the system named is IGROV1 ovarian. Briefly: DTP human tumour cell line panel, 48 h.
One may read the GI50 as the concentration that inhibits growth by half. What is called TGI is the concentration at which net growth stops. Low readings indicate greater sensitivity of the cells, high ones lower sensitivity of the cells. `OCC#Cc1ccccc1C#Cc1ccccc1`: the GI50 is 30.3 µM and the concentration for total growth inhibition (TGI) was greater than 100 µM.

`CC(=O)[C@@]12O[C@@H]1CC1C3CCC4=CC(O)CCC4(C)C3CCC12C` (some centres not stated): the GI50 was 31.8 µM and the TGI is greater than 100 µM.

In the case of `CCOC(=O)NC(=O)c1cn(CCCO)c(=O)[nH]c1=O`, the TGI was greater than 100 µM.

As to `CN(C)c1nc(=Nc2ccc(N=c3nc(N(C)C)ss3)cc2)ss1`, the total growth inhibition concentration (TGI) is greater than 71.7 µM.

Consider `COc1cc(OC)cc(-c2cc(=O)c3c(OC)c(OC)c(OC)c(OC)c3o2)c1`, for which the concentration for total growth inhibition (TGI) is greater than 100 µM.

In turn, `CSc1nc(NC2OCC(OC(C)=O)C(OC(C)=O)C2OC(C)=O)c(N=CC=Nc2c(NC3OCC(OC(C)=O)C(OC(C)=O)C3OC(C)=O)nc(SC)[nH]c2=O)c(=O)[nH]1` (configuration not stated) had a TGI greater than 100 µM.

As for `CCc1cc(Cc2cc(CC)c(NC(=O)C(=O)Cc3ccccn3)c(CC)c2Cl)c(Cl)c(CC)c1NC(=O)C(=O)Cc1ccccn1`, the TGI was greater than 100 µM.

In turn, `C[Si](C)(C)C1(Sc2ccccc2)SCCCS1` displayed a TGI greater than 100 µM.

For `O=C(CSc1ccc(Cl)cc1)Nc1ccc(-c2nc3ccccc3s2)c(Cl)c1`, the GI50 is 0.744 µM and the concentration for total growth inhibition (TGI) came to 75.8 µM.

As for `ClCc1cccc(Cn2cnc3ncnc(Cl)c32)c1`, the GI50 is 3.38 µM and the TGI was 13.8 µM.

Regarding `CCOC(=O)C(=C=C=C(c1ccccc1)c1ccccc1)C(=O)OCC`, the TGI was found to be 37.9 µM.

The compound `C/C(=N\NC(=S)NC(CCC(=O)O)C(=O)O)c1ccccn1` (configuration not stated) returned a TGI greater than 100 µM.

Turning to `Cc1c2c(nn1-c1ccc(S(=O)(=O)/N=C3\SCCC(=O)N3c3ccccc3)cc1)-c1ccccc1CC2`, the GI50 was greater than 100 µM and the TGI is greater than 100 µM.

As to `COc1cc(/C=C2\CN(S(=O)(=O)c3ccccc3)C/C(=C\c3cc(CN4CCCC4)c(O)c(OC)c3)C2=O)cc(CN2CCCC2)c1O`, the GI50 was 1.54 µM and the TGI was 3.29 µM.

Compound `CC(=O)/C(=C\c1cccc([N+](=O)[O-])c1)C(=O)Nc1ccccc1C` displayed a TGI greater than 100 µM.

The next assay has as its system PC-3 prostate. Briefly: DTP human tumour cell line panel, 48 h.
For the compound `Cc1ccc(S(=O)(=O)Nc2ccccc2C(=O)c2ccc(C)c(C)c2)cc1`, the total growth inhibition concentration (TGI) is greater than 100 µM.

In the case of `COc1ccc([C@H]2[C@@H](F)C(=O)N2c2cc(OC)c(OC)c(OC)c2)cc1F`, the GI50 was 42 nM and the TGI is greater than 100 µM.

Compound `COc1cc(NCc2ccc3oc(=O)c(-c4ccccc4)nc3c2)cc(OC)c1OC` returned a concentration for total growth inhibition (TGI) greater than 10 µM.

`O=S(=O)(CCn1c(Sc2ccccc2)c(Sc2ccccc2)c2ccccc21)c1ccccc1`: the TGI is greater than 100 µM.

In the case of `O=C(Nc1ccc(Cl)cc1)c1cccc(NC2=C(Cl)C(=O)N(Cc3ccccc3)C2=O)c1`, the GI50 was 9120 nM and the TGI worked out at 21.2 µM.

Turning to `OCC#Cc1ccccc1C#Cc1ccccc1`, the GI50 is 11500 nM and the TGI amounted to 24.1 µM.

In the case of `CC(=O)[C@@]12O[C@@H]1CC1C3CCC4=CC(O)CCC4(C)C3CCC12C` (some centres not stated), the GI50 was 40300 nM and the TGI was greater than 100 µM.

In the case of `O=C(CSc1ccc(Cl)cc1)Nc1ccc(-c2nc3ccccc3s2)c(Cl)c1`, the GI50 was 2420 nM and the TGI turned out to be 8.23 µM.

Take `ClCc1cccc(Cn2cnc3ncnc(Cl)c32)c1`: the GI50 is 2130 nM and the TGI came out at 5.32 µM.

On to `Cc1c2c(nn1-c1ccc(S(=O)(=O)/N=C3\SCCC(=O)N3c3ccccc3)cc1)-c1ccccc1CC2`, for which the GI50 is greater than 100000 nM and the TGI was greater than 100 µM.

Turning to `COc1cc(/C=C2\CN(S(=O)(=O)c3ccccc3)C/C(=C\c3cc(CN4CCCC4)c(O)c(OC)c3)C2=O)cc(CN2CCCC2)c1O`, the GI50 is 1410 nM and the TGI turned out to be 3.91 µM.

A further assay has as its system HCT-116 colon. Briefly: DTP human tumour cell line panel, 48 h.
Compound `O=c1cc(-c2ccccc2)oc2cc(OCCCOc3ccc4c(=O)cc(-c5ccccc5)oc4c3)ccc12` displayed a TGI greater than 100 µM.

Compound `COc1cc2c(c(OC)c1OC)-c1ccc(OC)c(=O)cc1C(NC(=O)c1ccc(N=[N+]=[N-])cc1)CC2` (configuration not stated) gave a TGI of 18.2 µM. That is a double-digit micromolar value.

In turn, `Cc1ccc(S(=O)(=O)Nc2ccccc2C(=O)c2ccc(C)c(C)c2)cc1` registered a TGI greater than 100 µM.

As to `CC(C)=Cc1cc(C(=O)Nc2ccc(Cl)c(Cl)c2)nc(N)n1`, the TGI was greater than 100 µM.

As to `Cn1cnc([N+](=O)[O-])c1Sc1nc2ccccc2[nH]1`, the TGI is 30.1 µM.

On to `COc1ccc([C@H]2[C@@H](F)C(=O)N2c2cc(OC)c(OC)c(OC)c2)cc1F`, for which the GI50 is 0.0325 µM and the TGI is greater than 100 µM.

The compound `COc1cc(NCc2ccc3oc(=O)c(-c4ccccc4)nc3c2)cc(OC)c1OC` displayed a TGI greater than 10 µM.

`O=S(=O)(CCn1c(Sc2ccccc2)c(Sc2ccccc2)c2ccccc21)c1ccccc1` came in with a total growth inhibition concentration (TGI) greater than 100 µM.

For `O=C(Nc1ccc(Cl)cc1)c1cccc(NC2=C(Cl)C(=O)N(Cc3ccccc3)C2=O)c1`, the GI50 was 6.29 µM and the TGI was determined as 19.7 µM.

Turning to `OCC#Cc1ccccc1C#Cc1ccccc1`, the GI50 is 15.3 µM and the TGI is 28.6 µM.

With `CC(=O)[C@@]12O[C@@H]1CC1C3CCC4=CC(O)CCC4(C)C3CCC12C` (some centres not stated), the GI50 was 31.7 µM and the total growth inhibition concentration (TGI) was greater than 100 µM.

In turn, `CCOC(=O)NC(=O)c1cn(CCCO)c(=O)[nH]c1=O` registered a total growth inhibition concentration (TGI) greater than 100 µM.

Compound `CN(C)c1nc(=Nc2ccc(N=c3nc(N(C)C)ss3)cc2)ss1` yielded a TGI of 34.1 µM.

Take `COc1cc(OC)cc(-c2cc(=O)c3c(OC)c(OC)c(OC)c(OC)c3o2)c1`: the concentration for total growth inhibition (TGI) was greater than 100 µM.

For the compound `CSc1nc(NC2OCC(OC(C)=O)C(OC(C)=O)C2OC(C)=O)c(N=CC=Nc2c(NC3OCC(OC(C)=O)C(OC(C)=O)C3OC(C)=O)nc(SC)[nH]c2=O)c(=O)[nH]1` (configuration not stated), the TGI was greater than 100 µM.

For the compound `CCc1cc(Cc2cc(CC)c(NC(=O)C(=O)Cc3ccccn3)c(CC)c2Cl)c(Cl)c(CC)c1NC(=O)C(=O)Cc1ccccn1`, the TGI is greater than 100 µM.

Consider `C[Si](C)(C)C1(Sc2ccccc2)SCCCS1`, for which the concentration for total growth inhibition (TGI) is greater than 100 µM.

With `O=C(CSc1ccc(Cl)cc1)Nc1ccc(-c2nc3ccccc3s2)c(Cl)c1`, the GI50 is 2.08 µM and the TGI came to 5.45 µM.

Consider `ClCc1cccc(Cn2cnc3ncnc(Cl)c32)c1`, for which the GI50 is 1.78 µM and the TGI is 5.21 µM.

For `CCOC(=O)C(=C=C=C(c1ccccc1)c1ccccc1)C(=O)OCC`, the concentration for total growth inhibition (TGI) is 38.6 µM.

For `C/C(=N\NC(=S)NC(CCC(=O)O)C(=O)O)c1ccccn1` (configuration not stated), the TGI is greater than 100 µM.
